# Results published in patent US20240254082A1, “Substituted Isoindoline-1, 3-diketone PDE4 Inhibitor and Pharmaceutical Application Thereof” (SUZHOU INTRAGRAND PHARMA CO., LTD, priority 2021, published 2024).
# Legend:
# Assay type in all cases: biochemical
# PDE4D3 = PDE4D3 (Homo sapiens, UniProt Q08499); test: Inhibition assay of PDE4D3 enzyme (TR-FRET kit)
# Protocol: 2. Inhibition assay of PDE4D3 enzyme:
# Materials and Instruments:
# FAM substrate: A stock solution of 20 μM FAM substrate was diluted to 200 nM with PDE assay buffer. 12.5 μL of the diluted substrate was added to each reaction well.
# 5 μL of the compound stock solution was added to 45 μL of DMSO to prepare a 1 mM diluent. 5 μL of the 1 mM diluent was added to 45 μL of PDE assay buffer to prepare a gradient dilution starting point. Then, according to the method of adding 5 μL of the previous concentration solution to 15 μL of PDE assay buffer, gradient dilution was carried out for 9 times to prepare compound working solutions with 10 concentrations. The working solutions were added to compound wells at 2.5 μL/well.
# PDE4D3: 0.054 μL of a PDE4D3 recombinase stock solution was added to 1500 μL of PDE buffer, and the mixture was added to all compound wells and positive control wells at 10 μL/well. 10 μL of PDE assay buffer was added to substrate control wells.
# Binding solution: 3750 μL of binding buffer A and 3750 μL of binding buffer B were mixed well. Then, 150 μL of a binder was added into the mixture and mixed well. 7.5 μL of a Tb donor was added and mixed well. The obtained mixture was added to all wells at 50 μL/well.
# S520=Read value of sample 520 nm
# S490=Read value of sample 490 nm
# Tb520=Read value of Tb only 520 nm
# Tb490=Read value of Tb only 490 nm
# FRETp=Positive control FRET
# FRETsub=Substrate control FRET.
# PDE1C = PDE1C (Homo sapiens, UniProt Q14123); test: Selective inhibitory activity assay, PDE1C; conditions: read-out: Inhibition rate (%) of PDE1C
# Protocol: (§1) 7. Selective inhibitory activity assay for PDE1, 2, 3, 5, 7, 10 and 11 enzymes
# (§2) The selective specificity of compounds for PDE4 was assessed by assaying single concentrations of the compounds. For example, PDE1a enzyme, PDElc enzyme, PDE2a enzyme, PDE3a enzyme, PDE3b enzyme, PDE5a1 enzyme, PDE7a enzyme, PDE7b enzyme, PDE10a1 enzyme and PDE11a4 enzyme were tested. The selective inhibitory effects of different compounds on the enzymatic activities of PDEIC, PDE2A, PDE3B, PDE5A1, PDE7A, and PDE10A1 at concentrations of 10 μM and 1 μM, respectively, are shown in the table below: […]
# PDE2A = PDE2A (Homo sapiens, UniProt O00408); test: Selective inhibitory activity assay, PDE2A; conditions: read-out: Inhibition rate (%) of PDE2A
# Protocol: as §1, §2
# PDE3B = PDE3B (Homo sapiens, UniProt Q13370); test: Selective inhibitory activity assay, PDE3B; conditions: read-out: Inhibition rate (%) of PDE3B
# Protocol: as §1, §2
# PDE5A1 = PDE5A1 (Homo sapiens, UniProt O76074); test: Selective inhibitory activity assay, PDE5A1; conditions: read-out: Inhibition rate (%) of PDE5A1
# Protocol: as §1, §2
# PDE7A = PDE7A (Homo sapiens, UniProt Q13946); test: Selective inhibitory activity assay, PDE7A; conditions: read-out: Inhibition rate (%) of PDE7A
# Protocol: as §1, §2
# PDE10A1 = PDE10A1 (Homo sapiens, UniProt Q9Y233); test: Selective inhibitory activity assay, PDE10A1; conditions: read-out: Inhibition rate (%) of PDE10A1
# Protocol: as §1, §2
# Sequence of PDE1C (Q14123 whole entry, species assumed): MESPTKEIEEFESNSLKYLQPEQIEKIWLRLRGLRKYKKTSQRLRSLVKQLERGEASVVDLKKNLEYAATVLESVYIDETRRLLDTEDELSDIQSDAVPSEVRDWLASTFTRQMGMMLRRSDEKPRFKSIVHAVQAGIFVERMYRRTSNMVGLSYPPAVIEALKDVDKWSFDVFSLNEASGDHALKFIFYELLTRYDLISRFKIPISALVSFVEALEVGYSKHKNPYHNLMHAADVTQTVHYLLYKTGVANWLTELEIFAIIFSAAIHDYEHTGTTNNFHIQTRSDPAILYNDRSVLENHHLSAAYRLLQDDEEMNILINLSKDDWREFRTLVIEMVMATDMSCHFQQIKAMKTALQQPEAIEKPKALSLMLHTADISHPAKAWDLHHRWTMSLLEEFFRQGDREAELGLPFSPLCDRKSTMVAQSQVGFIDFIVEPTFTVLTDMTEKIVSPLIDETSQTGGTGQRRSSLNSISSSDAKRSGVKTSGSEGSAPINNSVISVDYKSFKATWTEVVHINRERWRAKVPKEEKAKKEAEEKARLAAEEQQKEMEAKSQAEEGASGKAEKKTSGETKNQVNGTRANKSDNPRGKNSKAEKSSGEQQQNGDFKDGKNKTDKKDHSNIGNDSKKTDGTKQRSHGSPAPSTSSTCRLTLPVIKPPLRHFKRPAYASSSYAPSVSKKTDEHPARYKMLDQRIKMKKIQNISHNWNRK
# Sequence of PDE10A1 (Q9Y233 1-779 isoform Q9Y233-1, species assumed): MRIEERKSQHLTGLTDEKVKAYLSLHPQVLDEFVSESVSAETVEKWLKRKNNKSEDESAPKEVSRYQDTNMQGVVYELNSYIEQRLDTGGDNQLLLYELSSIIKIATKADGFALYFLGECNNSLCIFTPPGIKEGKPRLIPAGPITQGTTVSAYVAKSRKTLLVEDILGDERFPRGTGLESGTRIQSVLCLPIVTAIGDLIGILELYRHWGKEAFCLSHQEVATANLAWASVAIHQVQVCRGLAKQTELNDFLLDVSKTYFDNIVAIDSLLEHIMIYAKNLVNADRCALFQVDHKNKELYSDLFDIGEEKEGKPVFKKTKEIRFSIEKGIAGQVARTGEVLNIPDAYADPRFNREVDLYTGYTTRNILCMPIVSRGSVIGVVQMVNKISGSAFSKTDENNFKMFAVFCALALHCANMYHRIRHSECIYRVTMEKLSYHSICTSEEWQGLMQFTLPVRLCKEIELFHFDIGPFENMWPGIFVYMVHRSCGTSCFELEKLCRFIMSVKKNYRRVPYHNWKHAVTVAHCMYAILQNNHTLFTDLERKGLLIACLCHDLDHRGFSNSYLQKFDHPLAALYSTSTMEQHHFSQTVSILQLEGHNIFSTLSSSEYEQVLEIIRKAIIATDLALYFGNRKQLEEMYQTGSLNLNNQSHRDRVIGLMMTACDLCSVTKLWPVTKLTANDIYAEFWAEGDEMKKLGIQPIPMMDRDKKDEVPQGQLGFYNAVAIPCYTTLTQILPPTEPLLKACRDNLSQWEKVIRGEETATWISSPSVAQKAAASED
# Sequence of PDE2A (O00408 whole entry, species assumed): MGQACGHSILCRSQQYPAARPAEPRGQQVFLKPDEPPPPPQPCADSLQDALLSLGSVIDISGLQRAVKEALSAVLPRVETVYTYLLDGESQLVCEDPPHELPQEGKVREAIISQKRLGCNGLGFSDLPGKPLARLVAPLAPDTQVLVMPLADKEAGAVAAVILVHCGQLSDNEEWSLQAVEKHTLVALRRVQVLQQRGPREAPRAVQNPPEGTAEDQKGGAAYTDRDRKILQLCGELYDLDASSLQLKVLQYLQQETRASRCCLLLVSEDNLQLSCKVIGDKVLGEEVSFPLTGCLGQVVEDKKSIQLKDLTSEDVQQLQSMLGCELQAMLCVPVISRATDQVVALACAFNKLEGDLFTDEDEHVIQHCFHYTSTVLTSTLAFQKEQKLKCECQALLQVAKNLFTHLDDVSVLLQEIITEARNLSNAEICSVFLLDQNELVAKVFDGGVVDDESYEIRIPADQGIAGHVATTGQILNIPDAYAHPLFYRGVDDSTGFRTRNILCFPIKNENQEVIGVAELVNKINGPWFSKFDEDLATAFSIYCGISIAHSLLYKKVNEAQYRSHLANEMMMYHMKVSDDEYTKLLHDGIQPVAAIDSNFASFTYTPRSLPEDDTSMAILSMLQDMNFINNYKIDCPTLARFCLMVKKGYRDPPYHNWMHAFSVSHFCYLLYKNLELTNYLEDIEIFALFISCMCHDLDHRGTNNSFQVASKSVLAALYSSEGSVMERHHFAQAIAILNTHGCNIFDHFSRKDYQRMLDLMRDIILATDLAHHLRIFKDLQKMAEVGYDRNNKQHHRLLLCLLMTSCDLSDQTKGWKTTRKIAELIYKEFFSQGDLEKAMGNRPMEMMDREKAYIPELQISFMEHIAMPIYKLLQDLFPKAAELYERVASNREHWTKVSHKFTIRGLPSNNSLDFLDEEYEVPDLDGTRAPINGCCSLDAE
# Sequence of PDE4D3 (Q08499 1-673 isoform Q08499-2): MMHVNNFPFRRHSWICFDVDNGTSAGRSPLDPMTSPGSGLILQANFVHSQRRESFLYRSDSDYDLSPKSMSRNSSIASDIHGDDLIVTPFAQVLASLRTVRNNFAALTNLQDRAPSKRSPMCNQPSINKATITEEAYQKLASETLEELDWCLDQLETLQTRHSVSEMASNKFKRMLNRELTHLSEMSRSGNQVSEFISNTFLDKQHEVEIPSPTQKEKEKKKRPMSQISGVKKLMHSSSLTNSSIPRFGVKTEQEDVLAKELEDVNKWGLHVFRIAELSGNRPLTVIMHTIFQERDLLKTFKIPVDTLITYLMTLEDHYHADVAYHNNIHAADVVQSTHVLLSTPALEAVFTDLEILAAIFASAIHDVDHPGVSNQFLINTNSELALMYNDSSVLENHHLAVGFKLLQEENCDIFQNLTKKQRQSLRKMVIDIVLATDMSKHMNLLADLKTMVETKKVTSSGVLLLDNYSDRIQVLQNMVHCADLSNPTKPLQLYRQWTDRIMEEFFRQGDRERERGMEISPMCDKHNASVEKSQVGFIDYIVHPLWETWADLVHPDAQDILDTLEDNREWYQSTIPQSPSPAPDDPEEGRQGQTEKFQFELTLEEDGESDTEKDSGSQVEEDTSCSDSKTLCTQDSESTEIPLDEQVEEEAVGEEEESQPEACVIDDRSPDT
# Sequence of PDE7A (Q13946 whole entry, species assumed): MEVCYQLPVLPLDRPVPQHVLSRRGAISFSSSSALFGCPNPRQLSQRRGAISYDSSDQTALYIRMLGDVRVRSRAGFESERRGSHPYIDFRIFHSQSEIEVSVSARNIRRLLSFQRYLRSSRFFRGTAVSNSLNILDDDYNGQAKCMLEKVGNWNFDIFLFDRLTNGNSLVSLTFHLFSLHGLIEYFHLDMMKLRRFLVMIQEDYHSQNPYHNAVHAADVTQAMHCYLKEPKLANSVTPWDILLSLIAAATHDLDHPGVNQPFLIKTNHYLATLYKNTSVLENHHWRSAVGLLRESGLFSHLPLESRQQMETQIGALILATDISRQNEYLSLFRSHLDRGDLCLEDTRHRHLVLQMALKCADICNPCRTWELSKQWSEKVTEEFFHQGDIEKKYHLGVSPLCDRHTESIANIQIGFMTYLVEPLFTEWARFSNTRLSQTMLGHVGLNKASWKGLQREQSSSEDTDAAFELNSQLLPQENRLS
# Sequence of PDE3B (Q13370 whole entry, species assumed): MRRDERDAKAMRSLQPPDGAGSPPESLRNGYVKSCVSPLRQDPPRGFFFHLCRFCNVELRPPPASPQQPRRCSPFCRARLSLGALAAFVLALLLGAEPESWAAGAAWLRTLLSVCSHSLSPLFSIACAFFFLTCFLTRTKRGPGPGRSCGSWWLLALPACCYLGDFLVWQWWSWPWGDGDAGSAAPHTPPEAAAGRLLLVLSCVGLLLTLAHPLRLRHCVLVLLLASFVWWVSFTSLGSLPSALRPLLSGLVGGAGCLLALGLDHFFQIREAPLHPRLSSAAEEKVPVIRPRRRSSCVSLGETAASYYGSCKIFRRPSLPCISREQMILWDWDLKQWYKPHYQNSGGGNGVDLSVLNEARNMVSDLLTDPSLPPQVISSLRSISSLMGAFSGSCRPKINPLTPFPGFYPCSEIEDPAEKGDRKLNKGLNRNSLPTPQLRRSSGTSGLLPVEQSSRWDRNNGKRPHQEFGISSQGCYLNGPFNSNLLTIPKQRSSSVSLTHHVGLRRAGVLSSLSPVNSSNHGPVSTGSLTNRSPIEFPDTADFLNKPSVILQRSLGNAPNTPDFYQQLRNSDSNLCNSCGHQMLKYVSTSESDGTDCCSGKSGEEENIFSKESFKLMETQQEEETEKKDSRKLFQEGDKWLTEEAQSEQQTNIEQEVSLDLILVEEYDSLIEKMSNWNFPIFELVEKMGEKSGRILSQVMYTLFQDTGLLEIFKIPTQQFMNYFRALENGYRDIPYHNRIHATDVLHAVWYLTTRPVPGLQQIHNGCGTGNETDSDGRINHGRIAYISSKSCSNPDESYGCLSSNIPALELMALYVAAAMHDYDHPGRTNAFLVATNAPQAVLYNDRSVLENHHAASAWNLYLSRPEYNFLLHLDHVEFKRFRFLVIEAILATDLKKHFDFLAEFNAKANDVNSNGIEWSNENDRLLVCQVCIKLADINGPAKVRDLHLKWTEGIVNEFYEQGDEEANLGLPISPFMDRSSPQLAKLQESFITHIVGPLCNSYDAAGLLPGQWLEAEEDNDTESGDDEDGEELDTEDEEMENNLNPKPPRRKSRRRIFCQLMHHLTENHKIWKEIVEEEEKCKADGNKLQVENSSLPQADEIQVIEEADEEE
SMILES,IC50 (PDE4D3) [nM],also measured
"CCCCCCc1ccc(NC(=O)CCCCl)c2c1C(=O)N([C@H](CS(C)(=O)=O)c1ccc(OC)c(OCC)c1)C2=O [Example 20, (S)-2-[1-(3-ethoxy-4-methoxyphenyl)-2-alkylsulfonylethyl]-4-(γ-chlorobutyramido)-7-hexyl isoindoline-1,3-diketone]",50 to 200,
"CCCCCc1ccc(CNC(C)=O)c2c1C(=O)N([C@H](CS(C)(=O)=O)c1ccc(OC)c(OCC)c1)C2=O [Example 4, (S)-2-[1-(3-ethoxy-4-methoxyphenyl)-2-alkylsulfonylethyl]-4-acetamidomethyl-7-pentyl isoindoline-1,3-diketone]",10 to 50,
CCCCCc1ccc(NC(=O)COC)c2c1C(=O)N([C@H](CS(C)(=O)=O)c1ccc(OC)c(OCC)c1)C2=O [Example 31],50 to 200,
CCCCCc1ccc(NC(=O)CO)c2c1C(=O)N([C@H](CS(C)(=O)=O)c1ccc(OC)c(OCC)c1)C2=O [Example 30],50 to 200,
"C=CC(=O)Nc1ccc(CCCCC)c2c1C(=O)N([C@H](CS(C)(=O)=O)c1ccc(OC)c(OCC)c1)C2=O [Example 29, (S)-2-[1-(3-ethoxy-4-methoxyphenyl)-2-alkylsulfonylethyl]-4-acrylamido-7-pentyl isoindoline-1,3-diketone]",5 to 10,inhibition at 1 µM (PDE1C): 4.13%; inhibition at 10 µM (PDE1C): 26%; inhibition at 1 µM (PDE2A): 7.19%; inhibition at 10 µM (PDE2A): 15.8%; inhibition at 1 µM (PDE3B): 0%; inhibition at 10 µM (PDE3B): -1.94%; inhibition at 1 µM (PDE5A1): 5.72%; inhibition at 10 µM (PDE5A1): 13%; inhibition at 1 µM (PDE7A): 17.4%; inhibition at 10 µM (PDE7A): 19.9%; inhibition at 1 µM (PDE10A1): 0%; inhibition at 10 µM (PDE10A1): 16.1%
"CCCCCCCCc1cc(NC(=O)C2CC2)c2c(c1)C(=O)N([C@H](CS(C)(=O)=O)c1ccc(OC)c(OCC)c1)C2=O [Example 3, (S)-2-[1-(3-ethoxy-4-methoxyphenyl)-2-alkylsulfonylethyl]-4-cyclopropanamido-5-octyl isoindoline-1,3-diketone]",> 200,
"CCCCCCc1ccc2c(c1NC(=O)CC)C(=O)N([C@H](CS(C)(=O)=O)c1ccc(OC)c(OCC)c1)C2=O [Example 23, (S)-2-[1-(3-ethoxy-4-methoxyphenyl)-2-alkylsulfonylethyl]-4-propanamido-6-hexyl isoindoline-1,3-diketone]",50 to 200,
"CCCCCCCCCc1ccc(NC(=O)C2CC2)c2c1C(=O)N([C@H](CS(C)(=O)=O)c1ccc(OC)c(OCC)c1)C2=O [Example 17, (S)-2-[1-(3-ethoxy-4-methoxyphenyl)-2-alkylsulfonylethyl]-4-cyclopropanamido-7-nonyl isoindoline-1,3-diketone]",> 200,
CCCCCc1ccc(NC(=O)CCCl)c2c1C(=O)N([C@H](CS(C)(=O)=O)c1ccc(OC)c(OCC)c1)C2=O [Example 24],10 to 50,inhibition at 1 µM (PDE1C): 3.89%; inhibition at 10 µM (PDE1C): 34.5%; inhibition at 1 µM (PDE2A): 0%; inhibition at 10 µM (PDE2A): 7.79%; inhibition at 1 µM (PDE3B): 0%; inhibition at 10 µM (PDE3B): -0.81%; inhibition at 1 µM (PDE5A1): 0%; inhibition at 10 µM (PDE5A1): 11.5%; inhibition at 1 µM (PDE7A): 0%; inhibition at 10 µM (PDE7A): 4.15%; inhibition at 1 µM (PDE10A1): 6.04%; inhibition at 10 µM (PDE10A1): 11.4%
"CCCCCCCCCC(=O)Nc1cccc2c1C(=O)N([C@H](CS(C)(=O)=O)c1ccc(OC)c(OCC)c1)C2=O [Example 8, (S)-2-[1-(3-ethoxy-4-methoxyphenyl)-2-alkylsulfonylethyl]-4-decanamido-7-pentenyl (−1) isoindoline-1,3-diketone]",50 to 200,
"CCCCCCCCc1ccc(NC(=O)CCCCl)c2c1C(=O)N([C@H](CS(C)(=O)=O)c1ccc(OC)c(OCC)c1)C2=O [Example 22, (S)-2-[1-(3-ethoxy-4-methoxyphenyl)-2-alkylsulfonylethyl]-4-(γ-chlorobutyramido)-7-octyl isoindoline-1,3-diketone]",> 200,
"CCCCCCCCCCCCCc1ccc(NC(C)=O)c2c1C(=O)N([C@H](CS(C)(=O)=O)c1ccc(OC)c(OCC)c1)C2=O [Example 14, (S)-2-[1-(3-ethoxy-4-methoxyphenyl)-2-alkylsulfonylethyl]-4-acetamido-7-tridecyl isoindoline-1,3-diketone]",> 200,
"CCCCCCCCCc1ccc(NC(=O)CCC)c2c1C(=O)N([C@H](CS(C)(=O)=O)c1ccc(OC)c(OCC)c1)C2=O [Example 16, (S)-2-[1-(3-ethoxy-4-methoxyphenyl)-2-alkylsulfonylethyl]-4-butylamido-7-nonyl isoindoline-1,3-diketone]",> 200,
"CCCCCCc1ccc2c(c1NC(=O)CCCCl)C(=O)N([C@H](CS(C)(=O)=O)c1ccc(OC)c(OCC)c1)C2=O [Example 1, (S)-2-[1-(3-ethoxy-4-methoxyphenyl)-2-alkylsulfonylethyl]-4-(γ-chlorobutyramido)-5-hexyl isoindoline-1,3-diketone]",50 to 200,
"CCCCCCCCCCCCCc1ccc(NC(=O)C2CC2)c2c1C(=O)N([C@H](CS(C)(=O)=O)c1ccc(OC)c(OCC)c1)C2=O [Example 15, (S)-2-[1-(3-ethoxy-4-methoxyphenyl)-2-alkylsulfonylethyl]-4-cyclopropanamido-7-tridecyl isoindoline-1,3-diketone]",> 200,
"CCCCCCCCCCCCCc1ccc(NC(=O)CC)c2c1C(=O)N([C@H](CS(C)(=O)=O)c1ccc(OC)c(OCC)c1)C2=O [Example 19, (S)-2-[1-(3-ethoxy-4-methoxyphenyl)-2-alkylsulfonylethyl]-4-propanamido-7-tridecyl isoindoline-1,3-diketone]",> 200,
CCCCCc1ccc(NC(=O)CC(C)C)c2c1C(=O)N([C@H](CS(C)(=O)=O)c1ccc(OC)c(OCC)c1)C2=O [Example 11],> 200,
"CCCCCc1ccc(NC(=O)CCC)c2c1C(=O)N([C@H](CS(C)(=O)=O)c1ccc(OC)c(OCC)c1)C2=O [Example 10, (S)-2-[1-(3-ethoxy-4-methoxyphenyl)-2-alkylsulfonylethyl]-4-butylamido-7-pentyl isoindoline-1,3-diketone]",50 to 200,
"CCCCCc1ccc(NC(=O)C2CC2)c2c1C(=O)N([C@H](CS(C)(=O)=O)c1ccc(OC)c(OCC)c1)C2=O [Example 6, (S)-2-[1-(3-ethoxy-4-methoxyphenyl)-2-alkylsulfonylethyl]-4-cyclopropanamido-7-pentyl isoindoline-1,3-diketone]",50 to 200,
CCCCCC(=O)Nc1ccc(CCCCC)c2c1C(=O)N([C@H](CS(C)(=O)=O)c1ccc(OC)c(OCC)c1)C2=O [Example 12],> 200,
"CCCC/C=C/c1ccc2c(c1NC(=O)CCCCl)C(=O)N([C@H](CS(C)(=O)=O)c1ccc(OC)c(OCC)c1)C2=O [Example 2, (S)-2-[1-(3-ethoxy-4-methoxyphenyl)-2-alkylsulfonylethyl]-4-(γ-chlorobutyramido)-5-hexene (−1) yl isoindoline-1,3-diketone]",10 to 50,
"CCCCc1ccc(NC(=O)CCl)c2c1C(=O)N([C@H](CS(C)(=O)=O)c1ccc(OC)c(OCC)c1)C2=O [Example 26, (S)-2-[1-(3-ethoxy-4-methoxyphenyl)-2-alkylsulfonylethyl]-4-chloroacetamido-7-butyl isoindoline-1,3-diketone]",10 to 50,
"CCCCCCCc1ccc(NC(=O)CCCCl)c2c1C(=O)N([C@H](CS(C)(=O)=O)c1ccc(OC)c(OCC)c1)C2=O [Example 21, (S)-2-[1-(3-ethoxy-4-methoxyphenyl)-2-alkylsulfonylethyl]-4-(γ-chlorobutyramido)-7-heptyl isoindoline-1,3-diketone]",> 200,
"CCCCCCCCCc1ccc(NC(=O)CC)c2c1C(=O)N([C@H](CS(C)(=O)=O)c1ccc(OC)c(OCC)c1)C2=O [Example 18, (S)-2-[1-(3-ethoxy-4-methoxyphenyl)-2-alkylsulfonylethyl]-4-propanamido-7-nonyl isoindoline-1,3-diketone]",50 to 200,
